Test results reported in PubChem BioAssay AID330 (DTP/NCI, 2004).
“And” between values parts separate entries of the source, which are not always exact repeats. Equal entries are not always repeated. Toxic doses and inconclusive results are not listed.

Test system: P388 leukemia ip, CD2F1 mice, survival T/C
Experiment: NCI In Vivo Anticancer Drug Screen. Data for tumor model P388 Leukemia (intraperitoneal) in CD2F1 (CDF1) mice
Conditions: endpoint: median survival time, higher = longer survival
Method in brief: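 Mice carrying the transplanted tumor received test compound or vehicle. Survival was recorded in each group, and the value is the treated-group measurement divided by that of the vehicle-treated control group.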

[1] = dose: 60.0 mg/kg/injection, schedule: Q01DX005 (ip), vehicle: saline with Tween-80
[2] = dose: 120.0 mg/kg/injection, schedule: Q01DX005 (ip), vehicle: saline with Tween-80
[3] = dose: 240.0 mg/kg/injection, schedule: Q01DX005 (ip), vehicle: saline with Tween-80
[4] = dose: 50.0 mg/kg/injection, schedule: Q01DX009 (ip), vehicle: saline with Tween-80
[5] = dose: 100.0 mg/kg/injection, schedule: Q01DX009 (ip), vehicle: saline with Tween-80
[6] = dose: 200.0 mg/kg/injection, schedule: Q01DX009 (ip), vehicle: saline with Tween-80
[7] = dose: 100.0 mg/kg/injection, schedule: Q04DX003 (ip), vehicle: saline with Tween-80
[8] = dose: 200.0 mg/kg/injection, schedule: Q04DX003 (ip), vehicle: saline with Tween-80
[9] = dose: 400.0 mg/kg/injection, schedule: Q04DX003 (ip), vehicle: saline with Tween-80
[10] = dose: 30.0 mg/kg/injection, schedule: Q01DX005 (ip), vehicle: Klucel (hydroxypropylcellulose) (HPC)
[11] = dose: 60.0 mg/kg/injection, schedule: Q01DX005 (ip), vehicle: Klucel (hydroxypropylcellulose) (HPC)
[12] = dose: 12.5 mg/kg/injection, schedule: Q01DX009 (ip), vehicle: water
[13] = dose: 25.0 mg/kg/injection, schedule: Q01DX009 (ip), vehicle: water
[14] = dose: 50.0 mg/kg/injection, schedule: Q01DX009 (ip), vehicle: water

**Q.** What does the source list for `O=c1[nH]ncn1-c1ccccc1`?
**A.** T/C (dose: 12.5 mg/kg/injection, schedule: Q01DX009 (ip), vehicle: Klucel (hydroxypropylcellulose) (HPC)): 100 % of control; T/C (dose: 25.0 mg/kg/injection, schedule: Q01DX009 (ip), vehicle: Klucel (hydroxypropylcellulose) (HPC)): 109 % of control; T/C (dose: 50.0 mg/kg/injection, schedule: Q01DX009 (ip), vehicle: Klucel (hydroxypropylcellulose) (HPC)): 98 % of control; T/C (dose: 100.0 mg/kg/injection, schedule: Q01DX009 (ip), vehicle: Klucel (hydroxypropylcellulose) (HPC)): 106 % of control

**Q.** `CCOC(=O)c1cnc2cc3c(cc2c1Nc1ccc2c(c1)OCO2)OCO3` was tested. Which T/C (dose: 60.0 mg/kg/injection, schedule: Q01DX005 (ip), vehicle: Klucel + Tween-80) did it give?
**A.** Its T/C is 108 % of control.

**Q.** And the T/C (dose: 120.0 mg/kg/injection, schedule: Q01DX005 (ip), vehicle: Klucel + Tween-80)?
**A.** The T/C was 109 % of control.

**Q.** How did the T/C [1] turn out when `COC(=O)CN1C(=O)c2cccc3cc([N+](=O)[O-])cc(c23)C1=O` was run?
**A.** The T/C was 100 % of control.

**Q.** And the T/C [2]?
**A.** Its T/C is 98 % of control.

**Q.** And the T/C [3]?
**A.** The T/C was 90 % of control.

**Q.** Which T/C [4] does the source give for `CC(C)(C)N=C(CCN1CCN(c2ccccc2)CC1)Nc1ccccc1Cl` here?
**A.** Its T/C is 109 % of control.

**Q.** What about the T/C [5] of the same compound?
**A.** Its T/C is 108 % of control.

**Q.** What about the T/C [6] of the same compound?
**A.** Its T/C is 100 % of control.

**Q.** Which results are given for `CC(C)c1ccc(C(=O)CCCCl)cc1`?
**A.** T/C [7]: 109 % of control; T/C [8]: 100 % of control; T/C [9]: 104 % of control

**Q.** What does the source list for `CCOc1ccc2nc3cc(N)ccc3c(N)c2c1`?
**A.** T/C (dose: 44.0 mg/kg/injection, schedule: Q04DX003 (ip), vehicle: saline): 118 % of control; T/C (dose: 66.0 mg/kg/injection, schedule: Q04DX003 (ip), vehicle: saline): 118 % of control; T/C (dose: 100.0 mg/kg/injection, schedule: Q04DX003 (ip), vehicle: saline): 118 % of control; T/C (dose: 150.0 mg/kg/injection, schedule: Q04DX003 (ip), vehicle: saline): 118 % of control

**Q.** How did the T/C [10] turn out when `COc1ccc2c(c1)[nH]c1c(/C=C/c3ccc([N+](=O)[O-])cc3)nccc12` was run?
**A.** The T/C was 107 % of control.

**Q.** What about the T/C [11] of the same compound?
**A.** Its T/C is 103 % of control.

**Q.** What about the T/C (dose: 120.0 mg/kg/injection, schedule: Q01DX005 (ip), vehicle: Klucel (hydroxypropylcellulose) (HPC)) of the same compound?
**A.** Its T/C is 105 % of control.

**Q.** What about the T/C (dose: 240.0 mg/kg/injection, schedule: Q01DX005 (ip), vehicle: Klucel (hydroxypropylcellulose) (HPC)) of the same compound?
**A.** The T/C was 90 % of control.

**Q.** With `CCOC(=O)NCCCBr` as the compound, how does the T/C [4] read?
**A.** The T/C was 105 % of control.

**Q.** What about the T/C [5] of the same compound?
**A.** Its T/C is 99 % of control.

**Q.** And the T/C [6]?
**A.** The T/C was 107 % of control.

**Q.** `Clc1ccc2nc(C(Cl)(Cl)Cl)nc(NCCN3CCCCC3)c2c1` was tested. Which T/C [4] did it give?
**A.** The T/C was 100 % of control.

**Q.** And the T/C [5]?
**A.** The T/C was 100 % of control.

**Q.** And the T/C [6]?
**A.** The T/C was 90 % of control.

**Q.** Which T/C [1] does the source give for `[Se]=[Re]=[Se]` here?
**A.** The T/C was 96 % of control.

**Q.** What about the T/C [2] of the same compound?
**A.** Its T/C is 98 % of control.

**Q.** And the T/C [3]?
**A.** The T/C was 109 % of control.

**Q.** Which results are given for `COc1ccc2c(c1O)-c1cc(O)cc3c1C(C2)N(C(=O)CN(CCCl)CCCl)CC3` (stereo not given)?
**A.** T/C (dose: 12.5 mg/kg/injection, schedule: Q04DX003 (ip), vehicle: distilled water + Tween-80): 158 % of control; T/C (dose: 12.5 mg/kg/injection, schedule: Q04DX003 (ip), vehicle: water): 158 % of control; T/C (dose: 25.0 mg/kg/injection, schedule: Q04DX003 (ip), vehicle: distilled water + Tween-80): 114 % of control; T/C (dose: 25.0 mg/kg/injection, schedule: Q04DX003 (ip), vehicle: water): 116 % of control; T/C (dose: 50.0 mg/kg/injection, schedule: Q04DX003 (ip), vehicle: water): 96 % of control

**Q.** What does the source list for `NS(=O)(=O)c1ccc(Nc2c3ccccc3nc3c([N+](=O)[O-])cccc23)cc1`?
**A.** T/C (dose: 15.0 mg/kg/injection, schedule: Q01DX005 (ip), vehicle: saline with Tween-80): 97 % of control; T/C (dose: 30.0 mg/kg/injection, schedule: Q01DX005 (ip), vehicle: saline with Tween-80): 90 % of control; T/C [3]: 88 % of control

**Q.** Which results are given for `COc1ccc2nc3cc(Cl)ccc3c(Nc3ccccc3NC(C)=O)c2n1`?
**A.** T/C [12]: 116 % of control; T/C [13]: 116 % of control; T/C [14]: 119 % of control; T/C (dose: 100.0 mg/kg/injection, schedule: Q01DX009 (ip), vehicle: water): 114 % of control; T/C (dose: 200.0 mg/kg/injection, schedule: Q01DX009 (ip), vehicle: water): 115 % of control

**Q.** Which T/C [12] does the source give for `O=S(=O)(OI(O)c1ccccc1)c1ccccc1` here?
**A.** The T/C was 98 % of control.

**Q.** And the T/C [13]?
**A.** Its T/C is 116 % of control.

**Q.** And the T/C [14]?
**A.** The T/C was 105 % of control and 113 % of control.

**Q.** Which results are given for `O=C1C=C\C(=C/C=C\C=C2/C=CC(=O)O2)O1`?
**A.** T/C (dose: 50.0 mg/kg/injection, schedule: Q01DX005 (ip), vehicle: Klucel (hydroxypropylcellulose) (HPC)): 93 % of control; T/C (dose: 100.0 mg/kg/injection, schedule: Q01DX005 (ip), vehicle: Klucel (hydroxypropylcellulose) (HPC)): 100 % of control; T/C (dose: 200.0 mg/kg/injection, schedule: Q01DX005 (ip), vehicle: Klucel (hydroxypropylcellulose) (HPC)): 96 % of control

**Q.** Which T/C [4] does the source give for `O=C(NCCN(C(=O)C(F)(F)F)c1ccc(F)cc1)C(F)(F)F` here?
**A.** Its T/C is 100 % of control.

**Q.** What about the T/C [5] of the same compound?
**A.** Its T/C is 100 % of control.

**Q.** And the T/C [6]?
**A.** Its T/C is 101 % of control.

**Q.** `O=[N+]([O-])c1cnc(/C=[N+](\[O-])C2CCCCC2)n1CCO` was tested. Which T/C (dose: 50.0 mg/kg/injection, schedule: Q01DX009 (ip), vehicle: saline) did it give?
**A.** Its T/C is 98 % of control.

**Q.** What about the T/C (dose: 100.0 mg/kg/injection, schedule: Q01DX009 (ip), vehicle: saline) of the same compound?
**A.** The T/C was 100 % of control.

**Q.** What about the T/C (dose: 200.0 mg/kg/injection, schedule: Q01DX009 (ip), vehicle: saline) of the same compound?
**A.** The T/C was 102 % of control.

**Q.** For `C=C1C(=O)OCC1C(=O)OCC` (stereo not given), which T/C [7] is on record?
**A.** The T/C was 103 % of control.

**Q.** What about the T/C [8] of the same compound?
**A.** Its T/C is 107 % of control.

**Q.** And the T/C [9]?
**A.** Its T/C is 98 % of control.

**Q.** How did the T/C (dose: 15.0 mg/kg/injection, schedule: Q01DX005 (ip), vehicle: saline) turn out when `C[Si](C)(C)CNCc1ccccc1` was run?
**A.** Its T/C is 108 % of control.

**Q.** What about the T/C (dose: 30.0 mg/kg/injection, schedule: Q01DX005 (ip), vehicle: saline) of the same compound?
**A.** Its T/C is 105 % of control.

**Q.** What about the T/C (dose: 60.0 mg/kg/injection, schedule: Q01DX005 (ip), vehicle: saline) of the same compound?
**A.** The T/C was 102 % of control and 97 % of control.

**Q.** Which T/C (dose: 50.0 mg/kg/injection, schedule: Q01DX005 (ip), vehicle: saline with Tween-80) does the source give for `NC(=O)N/N=C1/CCC(OCc2ccccc2)CC1CC(=O)O` (stereo not given) here?
**A.** Its T/C is 102 % of control.

**Q.** And the T/C (dose: 100.0 mg/kg/injection, schedule: Q01DX005 (ip), vehicle: saline with Tween-80)?
**A.** The T/C was 105 % of control.

**Q.** What about the T/C (dose: 200.0 mg/kg/injection, schedule: Q01DX005 (ip), vehicle: saline with Tween-80) of the same compound?
**A.** The T/C was 96 % of control.

**Q.** For `Cc1ccccc1NC(=O)Nc1ccc(N(CCCl)CCCl)cc1`, which T/C (dose: 50.0 mg/kg/injection, schedule: Q01DX001 (ip), vehicle: Klucel (hydroxypropylcellulose) (HPC)) is on record?
**A.** The T/C was 92 % of control.

**Q.** And the T/C (dose: 100.0 mg/kg/injection, schedule: Q01DX001 (ip), vehicle: Klucel (hydroxypropylcellulose) (HPC))?
**A.** The T/C was 109 % of control.

**Q.** And the T/C (dose: 200.0 mg/kg/injection, schedule: Q01DX001 (ip), vehicle: Klucel (hydroxypropylcellulose) (HPC))?
**A.** Its T/C is 120 % of control.

**Q.** Which T/C (dose: 3.3 mg/kg/injection, schedule: Q01DX009 (ip), vehicle: saline sonified) does the source give for `C[n+]1c(/C=C/c2ccc([N+](=O)[O-])cc2)ccc2ccccc21` here?
**A.** The T/C was 100 % of control.

**Q.** And the T/C (dose: 6.5 mg/kg/injection, schedule: Q01DX009 (ip), vehicle: saline sonified)?
**A.** Its T/C is 111 % of control.

**Q.** What about the T/C (dose: 12.5 mg/kg/injection, schedule: Q01DX009 (ip), vehicle: saline sonified) of the same compound?
**A.** The T/C was 111 % of control.

**Q.** `COC(=O)/C=C/c1cc(=O)n2c(nc3ccccc32)s1` was tested. Which T/C (dose: 15.0 mg/kg/injection, schedule: Q01DX005 (ip), vehicle: Klucel (hydroxypropylcellulose) (HPC)) did it give?
**A.** Its T/C is 100 % of control.

**Q.** And the T/C [10]?
**A.** Its T/C is 89 % of control.

**Q.** And the T/C [11]?
**A.** The T/C was 86 % of control.
